This note sets out measurements from ChEMBL document CHEMBL5241129, “Design and synthesis of novel orexin 2 receptor agonists with a 1,3,5‑trioxazatriquinane skeleton” (Bioorg Med Chem Lett, 2023).

The target of test [1] is T1, Orexin receptor type 2 (Homo sapiens) (UniProt O43614).
T1 sequence (whole entry): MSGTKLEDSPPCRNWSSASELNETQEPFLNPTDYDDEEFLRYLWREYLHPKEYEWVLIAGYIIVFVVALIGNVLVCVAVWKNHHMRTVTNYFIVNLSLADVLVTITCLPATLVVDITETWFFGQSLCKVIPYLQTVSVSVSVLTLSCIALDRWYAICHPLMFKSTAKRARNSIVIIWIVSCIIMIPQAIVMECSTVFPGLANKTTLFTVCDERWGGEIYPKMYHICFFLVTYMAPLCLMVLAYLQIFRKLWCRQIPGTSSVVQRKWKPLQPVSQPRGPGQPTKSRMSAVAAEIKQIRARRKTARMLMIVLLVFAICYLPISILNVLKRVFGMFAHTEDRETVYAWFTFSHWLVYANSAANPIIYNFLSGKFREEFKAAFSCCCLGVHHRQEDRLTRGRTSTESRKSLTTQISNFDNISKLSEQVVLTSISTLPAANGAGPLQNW
In words: Agonist activity at OX2R (unknown origin) expressed in CHO cells at 10 uM by cell based calcium assay.

Test [2] concerns the target T2, Orexin/Hypocretin receptor type 1 (Homo sapiens, UniProt O43613).
T2 sequence (O43613 whole entry): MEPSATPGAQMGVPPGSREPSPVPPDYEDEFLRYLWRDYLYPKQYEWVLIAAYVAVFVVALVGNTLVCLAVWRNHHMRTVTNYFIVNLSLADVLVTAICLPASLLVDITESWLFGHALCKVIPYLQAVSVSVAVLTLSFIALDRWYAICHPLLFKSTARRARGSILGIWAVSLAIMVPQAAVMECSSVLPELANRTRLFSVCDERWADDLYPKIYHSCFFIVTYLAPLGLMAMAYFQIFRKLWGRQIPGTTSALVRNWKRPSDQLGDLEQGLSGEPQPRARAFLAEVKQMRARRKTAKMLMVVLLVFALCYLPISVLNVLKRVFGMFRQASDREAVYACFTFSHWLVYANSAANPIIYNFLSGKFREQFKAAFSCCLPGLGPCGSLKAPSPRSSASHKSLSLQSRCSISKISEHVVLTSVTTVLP
The test can be described thus: Antagonist activity at OX1R (unknown origin).

Test [3] has as its target T3, Orexin/Hypocretin receptor type 1 (Homo sapiens) (UniProt O43613).
T3 sequence (whole entry): T2 sequence (O43613 whole entry)
The test can be described thus: Agonist activity at OX1R (unknown origin) expressed in CHO cells at 10 uM by cell based calcium assay relative to orexin A.

The target in another test is T4, Orexin receptor type 2 (Homo sapiens, UniProt O43614).
T4 sequence (O43614 whole entry): T1 sequence (whole entry)
In words: Agonist activity at OX2R (unknown origin) expressed in CHO cells by cell based calcium assay.

Test [4] deals with T3, Orexin/Hypocretin receptor type 1 (Homo sapiens). The test can be described thus: Antagonist activity at OX1R (unknown origin) expressed in CHO cells at 10 uM in presence of orexin A by cell based calcium assay.
For test [5] the target is unchanged. In words: Agonist activity at OX1R (unknown origin) expressed in CHO cells at 10 uM by cell based calcium assay.

The source made the active and inactive calls. The calls are words filed in the database; no cut-off is given here.

Turning to `COC(=O)NC[C@]1(C)O[C@H]2CO[C@@H]3N2[C@H]1O[C@@]3(C)CNC(=O)OC`, in test [1], the outcome was inactive. On the same count and under the same terms, to `C[C@@]1(CNC(=O)OCc2ccccc2)O[C@H]2CO[C@@H]3N2[C@H]1O[C@@]3(C)CNC(=O)OCc1ccccc1` belongs “inactive”; to `C[C@@]1(CNC(=O)Cc2ccccc2)O[C@H]2CO[C@@H]3N2[C@H]1O[C@@]3(C)CNC(=O)Cc1ccccc1`, “inactive”; to `COc1ccccc1C(=O)NC[C@@]1(C)O[C@H]2CO[C@@H]3N2[C@H]1O[C@]3(C)CNC(=O)c1ccccc1OC`, “inactive”. Regarding `C[C@]1(CNC(=O)CCc2ccccc2)O[C@H]2CO[C@@H]3N2[C@H]1O[C@]3(C)CNC(=O)CCc1ccccc1`, the result in test [1] was inactive.

As for `C[C@]1(CNC(=O)Cc2ccccc2)O[C@H]2CO[C@@H]3N2[C@H]1O[C@]3(C)CNC(=O)Cc1ccccc1`, the outcome in test [1] was inactive. Take `COc1ccc(C(=O)Nc2cccc([C@@]3(C)O[C@@H]4CO[C@H]5N4[C@@H]3O[C@]5(C)c3cccc(NC(=O)c4ccc(OC)cc4)c3)c2)cc1`: the Ki in test [2] stood at 0.00217 µM. `C[C@]1(CNC(=O)OCC(Cl)(Cl)Cl)O[C@H]2CO[C@@H]3N2[C@H]1O[C@]3(C)CNC(=O)OCC(Cl)(Cl)Cl`: the outcome in test [1] was inactive. Regarding `COc1ccc(C(=O)NC[C@]2(C)O[C@H]3CO[C@@H]4N3[C@H]2O[C@@]4(C)CNC(=O)c2ccc(OC)cc2)cc1`, in test [1], the outcome was inactive. With `C=CCOC(=O)NC[C@]1(C)O[C@H]2CO[C@@H]3N2[C@H]1O[C@@]3(C)CNC(=O)OCC=C`, the result in test [1] was inactive. As to `CC(C)(C)OC(=O)NC[C@@]1(C)O[C@H]2N3[C@@H](CO[C@@H]31)O[C@@]2(C)CNC(=O)OC(C)(C)C`, the Emax in test [3] is 4.94%. On to `CCCCCCCCS(=O)(=O)NC[C@@]1(C)O[C@H]2CO[C@@H]3N2[C@H]1O[C@]3(C)CNS(=O)(=O)CCCCCCCC`, for which the Emax in test [3] is 5.29%. Moreover, the EC50 at Orexin receptor type 2 came to 2.42 µM. For the molecule `CC(C)(C)OC(=O)NC[C@@]1(C)O[C@@H]2CO[C@H]3N2[C@@H]1O[C@]3(C)CNC(=O)OC(C)(C)C` (racemic), the Emax in test [3] (filed as agonist) was 54%. Besides, in test [4], the outcome was inactive.

On to `C[C@@]1(CNC(=O)CCc2ccccc2)O[C@H]2CO[C@@H]3N2[C@H]1O[C@@]3(C)CNC(=O)CCc1ccccc1`, for which, in test [1], the outcome was inactive. On to `C[C@@]1(CNC(=O)/C=C/c2ccccc2)O[C@H]2CO[C@@H]3N2[C@H]1O[C@@]3(C)CNC(=O)/C=C/c1ccccc1`, for which the outcome in test [1] was inactive. The same measure, in the same setting: to `COc1ccc(C(=O)NC[C@@]2(C)O[C@H]3CO[C@@H]4N3[C@H]2O[C@]4(C)CNC(=O)c2ccc(OC)cc2)cc1` belongs “inactive”.

Consider `CN(C[C@@]1(C)O[C@@H]2CO[C@H]3N2[C@@H]1O[C@]3(C)CN(C)C(=O)OC(C)(C)C)C(=O)OC(C)(C)C`, for which the Emax in test [3] was determined as 4.47%.

For `CCCCCCCCS(=O)(=O)NC[C@@]1(C)O[C@@H]2CO[C@H]3N2[C@@H]1O[C@]3(C)CNS(=O)(=O)CCCCCCCC` (racemic), in test [3], the Emax is 23.6%. The outcome in test [4] was inactive. `COc1ccc(C(=O)Nc2cccc([C@]3(C)O[C@H]4CO[C@@H]5N4[C@H]3O[C@@]5(C)c3cccc(NC(=O)c4ccc(OC)cc4)c3)c2)cc1`: in test [2], the Ki came to 0.00523 µM. Regarding `CC(C)(C)C(=O)NC[C@@]1(C)O[C@H]2CO[C@@H]3N2[C@H]1O[C@]3(C)CNC(=O)C(C)(C)C`, the outcome in test [1] was inactive.

For `COC(=O)NC[C@@]1(C)O[C@H]2CO[C@@H]3N2[C@H]1O[C@]3(C)CNC(=O)OC`, the outcome in test [1] was inactive. On the same count and under the same terms, to `C[C@@]1(CNC(=O)OCC(Cl)(Cl)Cl)O[C@H]2CO[C@@H]3N2[C@H]1O[C@@]3(C)CNC(=O)OCC(Cl)(Cl)Cl` belongs “inactive”. As to `CCCCCCCCS(=O)(=O)NC[C@@]1(C)O[C@H]2N3[C@@H](CO[C@@H]31)O[C@@]2(C)CNS(=O)(=O)CCCCCCCC`, the Emax in test [3] was found to be 3.71%. As for `CCCS(=O)(=O)NC[C@@]1(C)O[C@@H]2CO[C@H]3N2[C@@H]1O[C@]3(C)CNS(=O)(=O)CCC`, the Emax in test [3] was found to be 14.2%. Also, the outcome in test [4] was inactive. Regarding `CC(=O)NC[C@@]1(C)O[C@H]2CO[C@@H]3N2[C@H]1O[C@]3(C)CNC(C)=O`, in test [1], the result was inactive. Consider `C[C@]1(CNC(=O)/C=C/c2ccccc2)O[C@H]2CO[C@@H]3N2[C@H]1O[C@]3(C)CNC(=O)/C=C/c1ccccc1`, for which the outcome in test [1] was inactive. In the case of `CC(C)(C)NC(=O)NC[C@@]1(C)O[C@@H]2CO[C@H]3N2[C@@H]1O[C@]3(C)CNC(=O)NC(C)(C)C`, the Emax in test [3] amounted to 2.81%. On the same count and under the same terms, to `CC(C)(C)OC(=O)NC[C@]1(C)O[C@@H]2CO[C@H]3N2[C@@H]1O[C@@]3(C)CNC(=O)OC(C)(C)C` (stereo in doubt; 20a) belongs 30.1%. Take `C[C@]1(CNC(=O)c2ccccc2)O[C@H]2CO[C@@H]3N2[C@H]1O[C@]3(C)CNC(=O)c1ccccc1`: the result in test [1] was inactive. As to `CC(C)(C)OC(=O)NC[C@]1(C)O[C@@H]2CO[C@H]3N2[C@@H]1O[C@@]3(C)CNC(=O)OC(C)(C)C` (stereo in doubt; (+)-20d), in test [3], the Emax is 5.07%. Turning to `CCCCCCCCS(=O)(=O)NC[C@]1(C)O[C@@H]2CO[C@H]3N2[C@@H]1O[C@@]3(C)CNS(=O)(=O)CCCCCCCC` (stereo in doubt; (+)-28d) [listing 1 of 2 here], the Emax in test [3] is 5.66%. The same measure, in the same setting: as for `CC(C)(C)OC(=O)NC[C@@]1(C)O[C@@H]2CO[C@H]3N2[C@@H]1O[C@@]3(C)CNC(=O)OC(C)(C)C`, the figure is 2.21%. Turning to `COc1cccc(C(=O)NC[C@@]2(C)O[C@H]3CO[C@@H]4N3[C@H]2O[C@]4(C)CNC(=O)c2cccc(OC)c2)c1`, the outcome in test [1] was inactive. For the molecule `CCCCCCCCS(=O)(=O)NC[C@]1(C)O[C@@H]2CO[C@H]3N2[C@@H]1O[C@@]3(C)CNS(=O)(=O)CCCCCCCC` (stereo in doubt; 28a), the Emax in test [3] amounted to 11.8%. Moreover, the result in test [4] was inactive. Turning to `C[C@]1(CNS(=O)(=O)c2ccccc2)O[C@H]2CO[C@@H]3N2[C@H]1O[C@]3(C)CNS(=O)(=O)c1ccccc1`, the result in test [1] and in test [5] was inactive. In the case of `CC(C)(C)OC(=O)NC[C@@]1(C)O[C@H]2CO[C@@H]3N2[C@H]1O[C@]3(C)CNC(=O)OC(C)(C)C`, the Emax in test [3] turned out to be 4.31%. On the same count and under the same terms, as for `CCCCCCCCS(=O)(=O)NC[C@@]1(C)O[C@@H]2CO[C@H]3N2[C@@H]1O[C@@]3(C)CNS(=O)(=O)CCCCCCCC`, the figure is 3.86%.

With `COc1ccccc1C(=O)NC[C@]1(C)O[C@H]2CO[C@@H]3N2[C@H]1O[C@@]3(C)CNC(=O)c1ccccc1OC`, in test [1], the result was inactive.

`CCCCCCCCS(=O)(=O)NC[C@]1(C)O[C@@H]2CO[C@H]3N2[C@@H]1O[C@@]3(C)CNS(=O)(=O)CCCCCCCC` (stereo in doubt; (+)-28d) [listing 2 of 2 here]: the concentration giving a half-maximal response (EC50) at Orexin receptor type 2 was found to be 1.62 µM. Regarding `COc1cccc(C(=O)NC[C@]2(C)O[C@H]3CO[C@@H]4N3[C@H]2O[C@@]4(C)CNC(=O)c2cccc(OC)c2)c1`, the outcome in test [1] was inactive. Take `CCCCS(=O)(=O)NC[C@@]1(C)O[C@@H]2CO[C@H]3N2[C@@H]1O[C@]3(C)CNS(=O)(=O)CCCC`: the Emax in test [3] worked out at 11.1%. The outcome in test [4] was inactive. As for `CC(=O)NC[C@]1(C)O[C@H]2CO[C@@H]3N2[C@H]1O[C@@]3(C)CNC(C)=O`, in test [1], the outcome was inactive. `CCCCCCCCS(=O)(=O)N(C)C[C@@]1(C)O[C@@H]2CO[C@H]3N2[C@@H]1O[C@]3(C)CN(C)S(=O)(=O)CCCCCCCC`: in test [3], the Emax stood at 2.65%.

With `C[C@]1(CNS(C)(=O)=O)O[C@@H]2CO[C@H]3N2[C@@H]1O[C@]3(C)CNS(C)(=O)=O`, the maximum response (Emax) in test [3] was determined as 5.66%. For the same molecule, in test [4], the outcome was inactive.

In the case of `C=CCOC(=O)NC[C@@]1(C)O[C@H]2CO[C@@H]3N2[C@H]1O[C@]3(C)CNC(=O)OCC=C`, in test [1], the outcome was inactive. On to `C[C@]1(CNC(=O)OCc2ccccc2)O[C@H]2CO[C@@H]3N2[C@H]1O[C@]3(C)CNC(=O)OCc1ccccc1`, for which the result in test [1] was inactive. For the molecule `C[C@@]1(CNC(=O)c2ccccc2)O[C@H]2CO[C@@H]3N2[C@H]1O[C@@]3(C)CNC(=O)c1ccccc1`, the outcome in test [1] was inactive. On the same count and under the same terms, as for `CC(C)(C)C(=O)NC[C@]1(C)O[C@H]2CO[C@@H]3N2[C@H]1O[C@@]3(C)CNC(=O)C(C)(C)C`, the entry is “inactive”.
